What was measured:
[1] = Cytotoxicity, CellTiter-Glo luminescent cell viability assay; details: human (A549) and green monkey (Vero E6)
SARS-CoV-2 3CLP = SARS-CoV-2 3CLP (Severe acute respiratory syndrome coronavirus 2, UniProt P0DTD1); experiment: SARS-CoV-2 3CLP inhibition, FRET-based cleavage assay; type: biochemical; details: 80 nM SARS-CoV-2 3CLP, 100 μM substrate, 37° C., 10 min incubation, pH 7.8; read-out: 3CL Protease IC50
SARS-CoV-2 = SARS-CoV-2 in vitro plaque reduction assay in Vero E6 cells; type: cell-based; details: Severe acute respiratory syndrome coronavirus 2, Vero C1008, MOI 0.0001 pfu/cell, plaques counted after 48 h, >5 μM = did not reduce plaque numbers by half at 10 μM, read-out: SARS-CoV-2 Antiviral EC50

| SMILES | CC50 at 24 h [1] [nM] | IC50 (SARS-CoV-2 3CLP) [nM] | EC50 (SARS-CoV-2) [nM] |
| --- | --- | --- | --- |
| COc1cccc2[nH]c(C(=O)N[C@@H](CC(C)C)C(=O)N[C@@H](C[C@@H]3CCCNC3=O)C(=O)COC(=O)c3c(Cl)cccc3Cl)cc12 [Compound 5, (3S)-3-{[N-(4-methoxy-1H-indole-2-carbonyl)-L-leucyl]amino}-2-oxo-4-[(3S)-2-oxopiperidin-3-yl]butyl 2,6-dichlorobenzoate] | > 200000 | 6.4 | – |
| COc1cccc2[nH]c(C(=O)N[C@@H](CC(C)C)C(=O)N[C@@H](C[C@@H]3CCCNC3=O)C(=O)COC(=O)c3c(C(F)(F)F)cccc3C(F)(F)F)cc12 [Compound 6, (3S)-3-{[N-(4-methoxy-1H-indole-2-carbonyl)-L-leucyl]amino}-2-oxo-4-[(3S)-2-oxopiperidin-3-yl]butyl 2,6-bis(trifluoromethyl)benzoate] | > 200000 | 1 | 210 |
| COc1cccc2[nH]c(C(=O)N[C@@H](CC(C)C)C(=O)N[C@@H](C[C@@H]3CCCNC3=O)C(=O)COC(=O)C(C)(C)C(F)(F)F)cc12 [Compound 13, (3S)-3-{[N-(4-methoxy-1H-indole-2-carbonyl)-L-leucyl]amino}-2-oxo-4-[(3S)-2-oxopiperidin-3-yl]butyl 3,3,3-trifluoro-2,2-dimethylpropanoate] | > 200000 | 20 | > 5000 |
| COc1cccc2[nH]c(C(=O)N[C@@H](CC(C)C)C(=O)N[C@@H](C[C@@H]3CCCNC3=O)C(=O)COC(=O)c3c(C(F)(F)F)cc(C)nc3C)cc12 [Compound 18, (3S)-3-{[N-(4-methoxy-1H-indole-2-carbonyl)-L-leucyl]amino}-2-oxo-4-[(3S)-2-oxopiperidin-3-yl]butyl 2,6-dimethyl-4-(trifluoromethyl)pyridine-3-carboxylate] | > 200000 | 14 | 460 |
| COc1cccc2[nH]c(C(=O)N[C@@H](CC(C)C)C(=O)N[C@H](C#N)C[C@@H]3CCCNC3=O)cc12 [Compound 34, N-[(2S)-1-({(1S)-1-cyano-2-[(3S)-2-oxopiperidin-3-yl]ethyl}amino)-4-methyl-1-oxopentan-2-yl]-4-methoxy-1H-indole-2-carboxamide] | > 200000 | 13 | 2700 |
| COc1cc(Cl)cc2[nH]c(C(=O)N[C@@H](CC(C)(C)C)C(=O)N[C@H](C#N)C[C@@H]3CCCNC3=O)cc12 [Compound 35, 6-chloro-N-[(2S)-1-({(1S)-1-cyano-2-[(3S)-2-oxopiperidin-3-yl]ethyl}amino)-4,4-dimethyl-1-oxopentan-2-yl]-4-methoxy-1H-indole-2-carboxamide] | > 200000 | – | 1500 |
| CC(C)C[C@H](NC(=O)c1cc2c(OC(F)(F)F)cccc2[nH]1)C(=O)N[C@H](C#N)C[C@@H]1CCCNC1=O [Compound 40, N-[(2S)-1-({(1S)-1-cyano-2-[(3S)-2-oxopiperidin-3-yl]ethyl}amino)-4-methyl-1-oxopentan-2-yl]-4-(trifluoromethoxy)-1H-indole-2-carboxamide] | > 50000 | 14 | 2600 |
| CCOc1cccc2[nH]c(C(=O)N[C@@H](CC(C)C)C(=O)N[C@H](C#N)C[C@@H]3CCCNC3=O)cc12 [Compound 69, N-[(2S)-1-({(1S)-1-cyano-2-[(3S)-2-oxopiperidin-3-yl]ethyl}amino)-4-methyl-1-oxopentan-2-yl]-4-ethoxy-1H-indole-2-carboxamide] | > 200000 | 24 | 4800 |
| COc1cccc2[nH]c(C(=O)N[C@@H](CC(C)(C)C)C(=O)N[C@H](C#N)C[C@@H]3CCCNC3=O)cc12 [Compound 70, N-[(2S)-1-({(1S)-1-cyano-2-[(3S)-2-oxopiperidin-3-yl]ethyl}amino)-4,4-dimethyl-1-oxopentan-2-yl]-4-methoxy-1H-indole-2-carboxamide] | > 200000 | – | > 5000 |
| CC(C)C[C@H](NC(=O)c1cc2c3c(ccc2[nH]1)CCO3)C(=O)N[C@H](C#N)C[C@@H]1CCCNC1=O [Compound 71, N-[(2S)-1-({(1S)-1-cyano-2-[(3S)-2-oxopiperidin-3-yl]ethyl}amino)-4-methyl-1-oxopentan-2-yl]-3,6-dihydro-2H-furo[2,3-e]indole-7-carboxamide] | > 200000 | 49 | > 5000 |
| Cc1cc(C)c(C(=O)OCC(=O)[C@H](C[C@@H]2CCCNC2=O)NC(=O)[C@H](CC(C)C)NC(=O)[C@H]2CCCO2)c(C)n1 [Compound 73, (3S)-2-oxo-3-({N-[(2R)-oxolane-2-carbonyl]-L-leucyl}amino)-4-[(3S)-2-oxopiperidin-3-yl]butyl 2,4,6-trimethylpyridine-3-carboxylate] | > 200000 | 190 | < 1000 |
| CC(C)C[C@H](NC(=O)[C@H]1CCCO1)C(=O)N[C@@H](C[C@@H]1CCNC1=O)C(=O)COC(=O)c1c(C(F)(F)F)cccc1C(F)(F)F [Compound 74, (3S)-2-oxo-3-({N-[(2R)-oxolane-2-carbonyl]-L-leucyl}amino)-4-[(3S)-2-oxopyrrolidin-3-yl]butyl 2,6-bis(trifluoromethyl)benzoate] | > 200000 | 110 | < 1000 |
| CC(C)(C)C[C@H](NC(=O)[C@@H]1CCCN1)C(=O)N[C@H](C#N)C[C@@H]1CCCNC1=O [Compound 90, prolyl-N-{(1S)-1-cyano-2-[(3S)-2-oxopiperidin-3-yl]ethyl}-4-methyl-L-leucinamide] | – | 1100 | > 5000 |
| CC(C)C[C@H](NCc1ncco1)C(=O)N[C@H](C#N)C[C@@H]1CCCNC1=O [Compound 91, N-{(1S)-1-cyano-2-[(3S)-2-oxopiperidin-3-yl]ethyl}-N^2-[(1,3-oxazol-2-yl)methyl]-L-leucinamide] | – | 37000 | > 5000 |
| CC(C)C[C@H](NC[C@@H]1CCCO1)C(=O)N[C@H](C#N)C[C@@H]1CCCNC1=O [Compound 92, N-{(1S)-1-cyano-2-[(3S)-2-oxopiperidin-3-yl]ethyl}-N^2-{[(2S)-oxolan-2-yl]methyl}-L-leucinamide] | – | 104000 | > 5000 |
| COc1cccc2oc(C(=O)N[C@@H](CC(C)(C)C)C(=O)N[C@H](C#N)C[C@@H]3CCCNC3=O)cc12 [Compound 93, N-[(2S)-1-({(1S)-1-cyano-2-[(3S)-2-oxopiperidin-3-yl]ethyl}amino)-4,4-dimethyl-1-oxopentan-2-yl]-4-methoxy-1-benzofuran-2-carboxamide] | – | 240 | > 5000 |
| N#C[C@H](C[C@@H]1CCNC1=O)NC(=O)[C@H](CC1CCCCC1)NC(=O)OCc1cccc(Cl)c1 [Compound 94, (3-chlorophenyl)methyl [(2S)-1-({(1S)-1-cyano-2-[(3S)-2-oxopyrrolidin-3-yl]ethyl}amino)-3-cyclohexyl-1-oxopropan-2-yl]carbamate] | – | 160 | > 5000 |
| CC(C)C[C@H](NCC1CCCCC1)C(=O)N[C@H](C#N)C[C@@H]1CCCNC1=O [Compound 95, N-{(1S)-1-cyano-2-[(3S)-2-oxopiperidin-3-yl]ethyl}-N^2-(cyclohexylmethyl)-L-leucinamide] | – | 97000 | > 5000 |
| COc1nccc2[nH]c(C(=O)N[C@@H](CC(C)(C)C)C(=O)N[C@H](C#N)C[C@@H]3CCCNC3=O)cc12 [Compound 99, N-[(2S)-1-({(1S)-1-cyano-2-[(3S)-2-oxopiperidin-3-yl]ethyl}amino)-4,4-dimethyl-1-oxopentan-2-yl]-4-methoxy-1H-pyrrolo[3,2-c]pyridine-2-carboxamide] | – | 22 | > 5000 |
| COc1nccc2c1cc(C(=O)N[C@@H](CC(C)(C)C)C(=O)N[C@H](C#N)C[C@@H]1CCCNC1=O)n2C [Compound 100, N-[(2S)-1-({(1S)-1-cyano-2-[(3S)-2-oxopiperidin-3-yl]ethyl}amino)-4,4-dimethyl-1-oxopentan-2-yl]-4-methoxy-1-methyl-1H-pyrrolo[3,2-c]pyridine-2-carboxamide] | – | 220 | > 5000 |
| CC(C)(C)C[C@H](NC(=O)[C@H]1Cc2ccccc2N1C(=O)OCc1ccccc1)C(=O)N[C@H](C#N)C[C@@H]1CCCNC1=O [Compound 101, benzyl (2R)-2-{[(2S)-1-({(1S)-1-cyano-2-[(3S)-2-oxopiperidin-3-yl]ethyl}amino)-4,4-dimethyl-1-oxopentan-2-yl]carbamoyl}-2,3-dihydro-1H-indole-1-carboxylate] | – | 180 | > 5000 |
| CC(C)(C)C[C@H](NC(=O)[C@H]1Cc2ccccc2N1)C(=O)N[C@H](C#N)C[C@@H]1CCCNC1=O [Compound 102, (2R)—N-[(2S)-1-({(1S)-1-cyano-2-[(3S)-2-oxopiperidin-3-yl]ethyl}amino)-4,4-dimethyl-1-oxopentan-2-yl]-2,3-dihydro-1H-indole-2-carboxamide] | – | 140 | > 5000 |
| CC(C)C[C@H](NC(=O)[C@@H]1C[C@H]1c1ccccc1)C(=O)N[C@H](C#N)C[C@@H]1CCCNC1=O [Compound 106, N-{(1S)-1-cyano-2-[(3S)-2-oxopiperidin-3-yl]ethyl}-N^2-[(1R,2R)-2-phenylcyclopropane-1-carbonyl]-L-leucinamide] | – | 69 | > 5000 |

— patent US20220204476A1, “RNA VIRUS INHIBITOR COMPOUNDS AND USES THEREOF” (The Governors of the University of Alberta, priority 2020, published 2022)
